Source: patent US20080021069A1, “Receptor Function Regulating Agent” (TAKEDA PHARMACEUTICAL COMPANY LIMITED, priority 2004, published 2008)

Legend:
human GPR40 = biological target: T1, human GPR40 (Homo sapiens, UniProt O14842); assay: GPR40 antagonist activity with changes in intracellular calcium concentration as index (NFAT-luciferase reporter, CHO(dhfr-)/GPR40-NFAT-Luc cells); format: cell-based; conditions: CHO cell line expressing human GPR40, NFAT-Luc reporter; GPR40 agonist 3-(4-((6-benzyloxy-2',6'-dimethyl-biphenyl-3-yl)methoxy)phenyl)propanoic acid 40 nM; 4 hr culture; 0.1% fatty acid-free BSA
T1 construct: expressed in transfected cells; host or cells: CHO(dhfr-) cells: line CHO-hGPR40 No. 104 of WO2004/041266, with a stably expressed NFAT-TA-Luc reporter (CHO(dhfr-)/GPR40-NFAT-Luc)
T1 sequence (O14842 whole entry): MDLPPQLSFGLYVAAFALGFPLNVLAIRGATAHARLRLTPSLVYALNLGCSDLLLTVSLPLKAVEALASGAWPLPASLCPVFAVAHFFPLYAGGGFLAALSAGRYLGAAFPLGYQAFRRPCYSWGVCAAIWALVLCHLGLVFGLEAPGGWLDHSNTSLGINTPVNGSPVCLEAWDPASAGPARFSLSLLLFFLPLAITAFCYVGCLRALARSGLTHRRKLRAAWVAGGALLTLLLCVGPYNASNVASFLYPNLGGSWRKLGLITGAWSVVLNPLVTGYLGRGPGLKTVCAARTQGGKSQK
Excerpt: Evaluation of GPR40 antagonist activity with changes in intracellular calcium concentration as index
An assay system of GPR40 antagonist was established as follows. In this assay system, as the GPR40 agonist, 3-(4-((6-benzyloxy-2′,6′-dimethyl-biphenyl-3-yl)methoxy)phenyl)propanoic acid (compound described in Example 340 of WO2004/041266) was used.
First, NFAT-TA was cut out from pNFAT-TA-Luc (manufactured by BD Bioscience Clontech) with HindIII and NheI, the recovered fragment was inserted into pGL3 basic neo digested with HindIII and NheI to give plasmid:pGL3 basic neo NFAT-TA-Luc.
This plasmid was used for “the CHO cell line (CHO-hGPR40 No. 104), which was made to express human GPR40” described in WO2004/041266, and a cell line CHO(dhfr-)/GPR40-NFAT-Luc, wherein a reporter gene was stably expressed by a method known per se, was prepared.
This cell line was diluted with a medium (nucleic acid-free MEM (Minimum Essential Medium)—α medium added with dialyzed FBS (Fetal Bovine Serum) to a final concentration of 10%) in such a manner that 2×10^4 cells/100 μl would be contained, dispensed to a white walled 96 well plate (manufactured by Coster) by 100 μl per well, and cultured overnight in a CO2 incubator. Then the medium was removed by suction from the 96 well plate, and a 10 mM test compound-dimethyl sulfoxide (manufactured by Wako Pure Chemical Industries, Ltd.) solution diluted with a medium (nucleic acid-free MEM—α medium added with bovine serum albumin (BSA) free of fatty acid to a final concentration of 0.1%) to each concentration was added by 50 μl per well. Further, 3-(4-((6-benzyloxy-2′,6′-dimethyl-biphenyl-3-yl)methoxy)phenyl)propanoic acid diluted with a medium (nucleic acid-free MEM-α (medium added with BSA free of fatty acid to a final concentration of 0.1%) to a final concentration of 40 nM was added to the 96 well plate by 50 μl per well.
After culture in a CO2 incubator for 4 hr, the culture medium was removed from the 96 well plate. Then, PicaGene (manufactured by TOYO INK MFG. CO., LTD.) was added to the 96 well plate, and the luciferase activity was determined using PerkinElmer ARVO (trade name, manufactured by PerkinElmer), based on which changes in the intracellular calcium concentration were evaluated. After assay of luciferase activity, nonlinear regression analysis was performed using PRISM 3 (trade name, manufactured by GraphPad) and IC50 value was calculated with changes in the intracellular calcium concentration as an index.
In the same manner as in Experimental Example 1, the IC50 value of the compound of the present invention was calculated.

| SMILES | IC50 (human GPR40) | melting point |
| --- | --- | --- |
| CCCOc1ccc(-n2c(NCc3ccc(C(C)(C)C)cc3)nc3ccc(Cl)cc32)cc1 [Example 73, N-(4-tert-Butylbenzyl)-6-chloro-1-(4-propoxyphenyl)-1H-benzimidazol-2-amine] | < 100 nM | 98 to 100 °C |
| CCCOc1ccc(-n2c(NCc3ccc(C(C)(C)C)cc3)nc3cc(Cl)c(Cl)cc32)cc1 [Example 96, N-(4-tert-Butylbenzyl)-5,6-dichloro-1-(4-propoxyphenyl)-1H-benzimidazol-2-amine] | < 100 nM | 122 to 123 °C |
| CCCOc1ccc(-n2c(NCc3ccc(Br)cc3)nc3cc(Cl)c(Cl)cc32)cc1 [Example 97, N-(4-Bromobenzyl)-5,6-dichloro-1-(4-propoxyphenyl)-1H-benzimidazol-2-amine] | < 100 nM | 106 to 107 °C |
| CCCOc1ccc(-n2c(SCc3ccc(Cl)cc3)nc3ccc(Cl)cc32)cc1 [Example 12, 6-Chloro-2-[(4-chlorobenzyl)thio]-1-(4-propoxyphenyl)-1H-benzimidazole] | < 100 nM | 102 to 103 °C |
| CC(C)(C)c1ccc(CNc2nc3cc(Cl)ccc3n2-c2ccc(OCC(F)(F)F)cc2)cc1 [Example 89, N-(4-tert-Butylbenzyl)-5-chloro-1-[4-(2,2,2-trifluoroethoxy)phenyl]-1H-benzimidazol-2-amine] | < 100 nM | 190 to 191 °C |
| CC(C)(C)c1ccc(CNc2nc3ccc(Cl)cc3n2-c2ccc(OCC(F)(F)F)cc2)cc1 [Example 78, N-(4-tert-Butylbenzyl)-6-chloro-1-[4-(2,2,2-trifluoroethoxy)phenyl]-1H-benzimidazol-2-amine] | < 100 nM | 151 to 152 °C |
| CCOc1ccc(-n2c(SCc3ccc(C(C)(C)C)cc3)nc3ccc(Cl)cc32)cc1 [Example 38, 2-[(4-tert-butylbenzyl)thio]-6-chloro-1-(4-ethoxyphenyl)-1H-benzimidazole] | < 100 nM | 142 to 143 °C |
| CC(C)(C)c1ccc(CNc2nc3cc(Cl)c(Cl)cc3n2-c2ccc(OC(F)(F)F)cc2)cc1 [Example 105, N-(4-tert-butylbenzyl)-5,6-dichloro-1-[4-(trifluoromethoxy)phenyl]-1H-benzimidazol-2-amine] | < 100 nM | 158 to 159 °C |
| CCCCOc1ccc(-n2c(NCc3ccc(C(C)(C)C)cc3)nc3cc(Cl)ccc32)cc1 [Example 86, 1-(4-Butoxyphenyl)-N-(4-tert-butylbenzyl)-5-chloro-1H-benzimidazol-2-amine] | < 100 nM | 158 to 159 °C |
| CCCOc1ccc(-n2c(SCc3ccc(Cl)cc3)nc3cc(Cl)c(Cl)cc32)cc1 [Example 112, 5,6-Dichloro-2-[(4-chlorobenzyl)thio]-1-(4-propoxyphenyl)-1H-benzimidazole] | < 100 nM | 119 to 120 °C |
| CC(C)Oc1ccc(-n2c(SCc3ccc(Cl)cc3)nc3cc(Cl)c(Cl)cc32)cc1 [Example 110, 5,6-Dichloro-2-[(4-chlorobenzyl)thio]-1-(4-isopropoxyphenyl)-1H-benzimidazole] | < 100 nM | 149 to 150 °C |
| CCOc1ccc(-n2c(SCc3ccc(C(F)(F)F)nc3)nc3ccc(Cl)cc32)cc1 [Example 36, 6-chloro-1-(4-ethoxyphenyl)-2-({[6-(trifluoromethyl)pyridin-3-yl]methyl}thio)-1H-benzimidazole] | < 100 nM | 104 to 105 °C |
| CCCOc1ccc(-n2c(NCc3ccc(Cl)cc3)nc3cc(Cl)c(Cl)cc32)cc1 [Example 98, 5,6-Dichloro-N-(4-chlorobenzyl)-1-(4-propoxyphenyl)-1H-benzimidazol-2-amine] | < 100 nM | 166 to 167 °C |
| CC(C)(C)c1ccc(CNc2nc3ccc(Cl)cc3n2-c2ccc(OC(F)(F)F)cc2)cc1 [Example 80, N-(4-tert-Butylbenzyl)-6-chloro-1-[4-(trifluoromethoxy)phenyl]-1H-benzimidazol-2-amine] | < 100 nM | 181 to 182 °C |
| FC(F)(F)COc1ccc(-n2c(NCc3ccc(Br)cc3)nc3cc(Cl)c(Cl)cc32)cc1 [Example 103, N-(4-Bromobenzyl)-5,6-dichloro-1-[4-(2,2,2-trifluoroethoxy)phenyl]-1H-benzimidazol-2-amine] | < 100 nM | 118 to 120 °C |
| CCCOc1ccc(-n2c(NCc3ccc(C(C)(C)C)cc3)nc3cc(Cl)ccc32)cc1 [Example 83, N-(4-tert-Butylbenzyl)-5-chloro-1-(4-propoxyphenyl)-1H-benzimidazol-2-amine] | < 100 nM | 190 to 191 °C |
| CC(C)(C)c1ccc(CNc2nc3ccc(Cl)cc3n2-c2ccc(OC(F)(F)C(F)F)cc2)cc1.Cl [Example 106, N-(4-tert-Butylbenzyl)-6-chloro-1-[4-(1,1,2,2-tetrafluoroethoxy)phenyl]-1H-benzimidazol-2-amine hydrochloride] | < 100 nM | 130 to 133 °C |
| CCCCOc1ccc(-n2c(SCc3ccc(Cl)cc3)nc3cc(Cl)c(Cl)cc32)cc1 [Example 113, 1-(4-Butoxyphenyl)-5,6-dichloro-2-[(4-chlorobenzyl)thio]-1H-benzimidazole] | < 100 nM | 99 to 100 °C |
| COCOc1ccc(-n2c(SCc3ccc(Cl)cc3)nc3ccc(Cl)cc32)cc1 [Example 7, 6-Chloro-2-[(4-chlorobenzyl)thio]-1-[4-(methoxymethoxy)phenyl]-1H-benzimidazole] | < 100 nM | 109 to 110 °C |
| COc1ccc(-n2c(SCc3ccc(Cl)cc3)nc3cc(Cl)c(Cl)cc32)cc1 [Example 108, 5,6-Dichloro-2-[(4-chlorobenzyl)thio]-1-(4-methoxyphenyl)-1H-benzimidazole] | < 100 nM | 141 to 142 °C |
| FC(F)C(F)(F)Oc1ccc(-n2c(SCc3ccc(Cl)cc3)nc3ccc(Cl)cc32)cc1 [Example 135, 6-Chloro-2-[(4-chlorobenzyl)thio]-1-[4-(1,1,2,2-tetrafluoroethoxy)phenyl]-1H-benzimidazole] | < 100 nM | 139 to 140 °C |
| COCOc1ccc(-n2c(SCc3ccc(Br)cc3)nc3ccc(Cl)cc32)cc1 [Example 8, 2-[(4-Bromobenzyl)thio]-6-chloro-1-[4-(methoxymethoxy)phenyl]-1H-benzimidazole] | < 100 nM | 123 to 124 °C |
| CCCCOc1ccc(-n2c(NCc3ccc(Cl)cc3)nc3ccc(Cl)cc32)cc1 [Example 76, 1-(4-Butoxyphenyl)-6-chloro-N-(4-chlorobenzyl)-1H-benzimidazol-2-amine] | < 100 nM | 122 to 123 °C |
| CCCCOc1ccc(-n2c(NCc3ccc(Br)cc3)nc3cc(Cl)c(Cl)cc32)cc1 [Example 100, 1-(4-Butoxyphenyl)-5,6-dichloro-N-(4-bromobenzyl)-1H-benzimidazol-2-amine] | < 100 nM | 161 to 162 °C |
| CCOc1ccc(-n2c(NCc3ccc(C(C)(C)C)cc3)nc3ccc(Cl)cc32)cc1 [Example 51, N-(4-tert-Butylbenzyl)-6-chloro-1-(4-ethoxyphenyl)-1H-benzimidazol-2-amine] | < 100 nM |  |
| COc1ccc(-n2c(NCc3ccc(C(C)(C)C)cc3)nc3cc(Cl)c(Cl)cc32)cc1 [Example 92, N-(4-tert-Butylbenzyl)-5,6-dichloro-1-(4-methoxyphenyl)-1H-benzimidazol-2-amine] | < 100 nM |  |
